Results on 11 compounds are retold here after US20260206761A1, “HETEROARYL-TRIAZOLE COMPOUNDS AS PESTICIDES” (Bayer Aktiengesellschaft, priority 2019, published 2026).

As usually defined, the mortality is the share of the test organisms that died. A lower mortality goes with more survivors.

Format in all cases: in vivo
Test [1] has as its system brown planthopper (Nilaparvata lugens). The test is described as follows: Nilaparvata lugens spray test. Conditions: 96 h, after 4 days; for mortality at 100 g/ha: application rate 100 g/ha; for mortality at 500 g/ha: application rate 500 g/ha. Summed up:
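Compound dissolved in acetone/dimethylformamide and diluted in water with 1000 ppm alkylarylpolyglycol ether emulsifier. Rice plants sprayed at the test concentration, then infested with brown planthopper; % mortality read after 4 days (100% = all killed, 0% = none).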

Test [2] deals with southern root-knot nematode (Meloidogyne incognita). The test is described as follows: Meloidogyne incognita test. Conditions: 336 h, application rate 20 ppm, after 14 days, read-out: nematicidal activity (based on gall formation). The protocol:
Meloidoyne incognita—Test
Solvent: 125.0 parts by weight of acetone
To produce a suitable preparation of active compound, 1 part by weight of active compound is mixed with the stated amount of solvent, and the concentrate is diluted with water to the desired concentration.
Vessels are filled with sand, a solution of the active ingredient, a suspension containing eggs and larvae of the southern root-knot nematode (Meloidogyne incognita) and salad seeds. The salad seeds germinate and the seedlings grow. Galls develop in the roots.
After 14 days the nematicidal activity is determined based on the percentage of gall formation. 100% means no galls were found and 0% means the number of galls found on the roots of the treated plants was equal to that in untreated control plants.

The test system of test [3] is two spotted spidermite (Tetranychus urticae). Description: Tetranychus urticae spray test OP-resistant. Conditions: 144 h, application rate 100 g/ha, after 6 days. Here is the method: Tetranychus urticae—Spray Test OP-Resistant
Solvent: 78.0 parts by weight acetone • 1.5 parts by weight dimethylformamide
Emulsifier: alkylarylpolyglycol ether
To produce a suitable preparation of active compound, 1 part by weight of active compound is mixed with the stated amount of solvents and is diluted with water, containing an emulsifier concentration of 1000 ppm, to the desired concentration. Further test concentrations are prepared by dilution with emulsifier containing water.
French bean (Phaseolus vulgaris) leaf disks infected with all instars of the two spotted spidermite (Tetranychus urticae), are sprayed with a preparation of the active ingredient of the desired concentration.
After 6 days mortality in % is determined. 100% means all spider mites have been killed and 0% means none of the spider mites have been killed.

`CC(NC(=O)c1cc(C(F)(F)F)cc(S(C)(=O)=O)c1)c1nc(Cl)nn1-c1ncccn1` (stereo not drawn) [I-30] returned a mortality at 100 g/ha in test [1] of 100%.

In test [1], `C[C@H](NC(=O)c1cc(C#N)cc([S+](C)[O-])c1)c1ncnn1-c1ccc(C#N)cn1` (stereo partly drawn) [II-12] showed a mortality at 100 g/ha of 100% and a mortality at 500 g/ha of 100%.

With `C[C@H](NC(=O)c1cc(C(F)(F)F)cc(S(C)(=O)=O)c1)c1ncnn1-c1ncccn1` [II-13], in test [1], the mortality at 100 g/ha came out at 100% and the mortality at 500 g/ha stood at 100%.

In test [1], `C[C@H](NC(=O)c1cc(OC(F)(F)F)cc(C2CC2)c1)c1ncnn1-c1ccccn1` [II-22] yielded a mortality at 500 g/ha of 90%. Besides, in test [2], the pest or weed control at 20 ppm came to 90%.

The compound `Cc1nc([C@H](C)NC(=O)c2cc(C(F)(F)F)n(C)n2)n(-c2ncccn2)n1` [II-25] came in with a mortality at 500 g/ha in test [1] of 90%.

`C[C@H](NC(=O)c1cc(C2CC2)cc(C(F)(F)F)c1)c1ncnn1-c1ccc(C#N)cn1` [II-26] came in with a mortality at 100 g/ha in test [3] of 90%.

Consider `C[C@H](NC(=O)c1cc(Cl)cc(S(=O)(=O)C(F)F)c1)c1ncnn1-c1ncccn1` [II-34], for which, in test [1], the mortality at 100 g/ha is 100% and the mortality at 500 g/ha worked out at 100%.

On to `C[C@H](NC(=O)c1cc(C(F)(F)F)cc(C2(C#N)CC2)c1)c1ncnn1-c1ccc(C#N)cn1` [II-47], for which the mortality at 100 g/ha in test [3] stood at 90%.

`Cc1nc([C@H](C)NC(=O)c2cc(C(F)(F)F)cc(C3(C#N)CC3)c2)n(-c2ccc(C#N)cn2)n1` [II-49]: the mortality at 100 g/ha in test [1] turned out to be 100%.

As for `Cc1nc([C@H](C)NC(=O)c2cc(C(F)(F)F)cc(S(C)(=O)=O)c2)n(-c2ccc(C#N)cn2)n1` [II-52], the mortality at 100 g/ha in test [1] came to 100%.

`C[C@H](NC(=O)c1cc(C#N)cc(C2CC2)c1)c1ncnn1-c1ncccn1` [II-54]: the mortality at 100 g/ha in test [1] turned out to be 100%.
